Experimental data from patent publication US20230271928A1, “NAPHTHYLUREA COMPOUND, METHODS OF PREPARATION AND USE THEREOF” (Henan Radiomedical Science and Technology Co., Ltd., priority 2021, published 2023).
Read-outs that look alike come from different tables or passages of the source.

Assays:
Format in all cases: cell-based
SMMC-7721 cells = test: MTT proliferation assay, SMMC-7721; details: Homo sapiens; SMMC-7721, MTT, 48 h
Method: (§1) Difference cell lines HepG2, SMMC-7721, HuH-7, MCF-7, MDA-MB-231, MDA-MB-468, PC9, PC9-AR, PC9-GR, Jurkat and Molt-13 were harvested during log phase; the number of the cells in an original cell suspension was counted; the original cell suspension was diluted to a density of 5×10^4 cells/mL; for a 96-well plate, 100 uL of the cell suspension was transferred to each well; DMSO is used as solvent for negative control; (2E)-3-(6-bromo-2-pyridyl)-2-cyano-N-[(1S)-1-phenylethyl]-2-acrylamide (WP1066CAS: 857064-38-1, with a formula
(§2) or gefitinib was used as a positive control; the naphthylurea compound ID1120B-1 and the phosphate ID1120B-P thereof were diluted with DMSO and added into the 96-well plate to achieve a final concentration of 0.1, 0.3, 1, 3, 10, 30, 100 and 300 μmol/L in each well; the 96-well plate was incubated for 48 h; 10 μL of MTT solvent (5 mg/mL) was added into each well; the 96-well plate was incubated at 37° C. for 4 h; a culture supernatant was discarded; 150 μL of DMSO was added into each well; the 96-well plate was shaken for 10 min on a plate shaker; an optical density (OD) of the resulting product was measured at a wavelength of 490 nm by an ELISA reader. Test results were recorded. A cell growth curve was drawn with the dosage of each compound as abscissa and the absorbance value as ordinate. The half maximum inhibition rates (IC50 value) of the cancer cells were shown in Table 1, FIGS. 1A-1J and FIGS. 2A-2J.

HepG2 cells [1] = test: MTT proliferation assay, HepG2; details: Homo sapiens
Method: as §1, §2

MDA-MB-468 cells = test: MTT proliferation assay, MDA-MB-468; details: Homo sapiens, MDA-MB-468, MTT
Method: (§3) Test results were recorded. A cell growth curve was drawn with the dosage of each compound as abscissa and the absorbance value as ordinate.

MCF-7 cells = test: MTT proliferation assay, MCF-7; details: Homo sapiens
Method: as §3

MDA-MB-231 cells = test: MTT proliferation assay, MDA-MB-231; details: Homo sapiens; MDA-MB-231, MTT, 48 h
Method: as §3

HepG2 cells [2] = test: Cell cycle analysis by PI flow cytometry; details: HepG2, 48 h
Method: HepG2 cells were harvested during log phase, digested, centrifuged and prepared into a single cell suspension; the number of the cells in the single cell suspension was counted; the cells were seeded into a 12-well plate, with 2×10^5 cells per well; three wells were used as a parallel control design; 16 hours after seeding, the cells were treated with the compounds in a concentration gradient for 48 h; the cells were digested with trypsin and resuspended; the number of the cells in the cell suspension was counted and diluted to 5×10^5 cells/mL; after the digestion was completed, the cell suspension was centrifuged; the supernatant was discarded; the pellet was washed twice with PBS (each time the mixture was centrifuged 2000 rpm for 5 min); the supernatant was discarded; a fixative comprising 980 μL of 70% cold ethanol and 20 μL of 5% BSA (a small amount of BSA reduces cellular stress and damage) was added to each microcentrifuge tube, so that the cells were fixed overnight at 4° C.; the fixative is discarded; the cells were washed three times in PBS to remove residual fixative (each time the mixture was centrifuged at 1000 rpm for 3 min); a DNA quantification kit is used to measure the content of DNA according to the following instruction (Suo Laibao, Beijing): each sample was incubated in 100 μL of RNase A at 37° C. for 30 min; 500 μL of PI (propidium iodide) was added to each sample; each sample was incubated at room temperature for 30 min in the dark; the cell cycle was analyzed by a flow cytometry and a ModFit software; and Graphpad prism 6.0 was used to estimate the percentage of a cell population in the different phases of the cell cycle.

HuH-7 cells = test: MTT proliferation assay, HuH-7; details: Homo sapiens; HuH-7, MTT, 48 h
Method: as §1, §2

[3] = MCF7, MCF-7, MTT, 48 h, read-out: IC50
[4] = compared with negative control (DMSO)

SMILES	IC50 (HepG2 cells [1]; HepG2, 48 h)	IC50 (MDA-MB-468 cells; MDA-MB-468, 48 h)	further results
O=C(NCc1ccccc1)Nc1ccc(OCc2ccc(OCCN3CCCCC3)c(Cl)c2)c2ccccc12 [ID1120C-1]	–	–	IC50 (SMMC-7721 cells): 6.75 µM
N#Cc1cc(OCCN2CCCCC2)ccc1COc1ccc(NC(=O)NCc2ccccc2)c2ccccc12 [ID1120D-1]	–	–	IC50 (SMMC-7721 cells): 6.89 µM
O=C(Nc1ccc(OCc2ccc(OCCN3CCCCC3)cc2)c2ccccc12)NC1CCCCC1 [ID1207B-1]	–	–	IC50 (HepG2 cells [1]; 48 h): 462 µM; IC50 (MDA-MB-468 cells; 48 h): 267 µM
O=C(NCCc1ccccc1)Nc1ccc(OCc2ccc(OCCN3CCCCC3)cc2)c2ccccc12 [ID1210B-1]	–	–	IC50 (MCF-7 cells; MCF7, 48 h): 8.08 µM
O=C(Nc1ccc(OCc2ccc(OCCN3CCCCC3)cc2Cl)c2ccccc12)NC1CCCCC1 [ID1215C-1]	–	–	IC50 (MDA-MB-468 cells; 48 h): 3.47 µM
O=C(Nc1ccc(OCc2ccc(OCCN3CCCCC3)cc2)c2ccccc12)NC1CCCC1 [ID1217B-1]	72.6 µM	33.9 µM	–
COc1ccc(NC(=O)Nc2ccc(OCc3ccc(OCCN4CCCCC4)cc3)c3ccccc23)cc1OC [ID1224C-1]	93.8 µM	–	–
O=C(Nc1ccc(OC(F)(F)F)c(Cl)c1)Nc1ccc(OCc2ccc(OCCN3CCCCC3)cc2)c2ccccc12 [ID1229C-1]	50.3 µM	47.5 µM	–
COc1ccc(NC(=O)Nc2ccc(OCc3ccc(OCCN4CCCCC4)c(Cl)c3)c3ccccc23)cc1 [ID210110C-1]	–	6.13 µM	–
O=C(Nc1ccc(OCc2ccc(OCCN3CCCCC3)cc2)c2ccccc12)NC1CCOCC1 [ID210127B-1]	3.5 µM	0.736 µM	–
S=C(NCc1ccccc1)Nc1ccc(OCc2ccc(OCCN3CCCCC3)cc2)c2ccccc12 [IY1207A-1]	–	–	IC50 (MCF-7 cells; [3]): 24.3 µM
O=C(Nc1ccc(OCc2ccc(OCCN3CCCCC3)cc2F)c2ccccc12)NC1CCCC1 [IY1215C-1]	–	5.36 µM	–
COc1ccc(NC(=O)Nc2ccc(OCc3ccc(OCCN4CCCCC4)cc3)c3ccccc23)cc1Cl [IY1225B-1]	1.95 µM	–	–
O=C(Nc1ccc(Cl)cc1)Nc1ccc(OCc2ccc(OCCN3CCCCC3)cc2)c2ccccc12 [IY1229D-1]	–	–	IC50 (HepG2 cells [1]; 48 h): 12.2 µM; IC50 (MDA-MB-468 cells; 48 h): 14.2 µM
O=C(Nc1ccc(F)cc1)Nc1ccc(OCc2ccc(OCCN3CCCCC3)c(Br)c2)c2ccccc12 [IY210105A-1]	–	20.4 µM	–
COc1cc(NC(=O)Nc2ccc(OCc3ccc(OCCN4CCCCC4)cc3)c3ccccc23)ccc1F [IY210105C-1]	4.39 µM	1.89 µM	–
O=C(Nc1ccc(Cl)cc1)Nc1ccc(OCc2ccc(OCCN3CCCCC3)c(F)c2)c2ccccc12 [IY210106D-1]	–	–	IC50 (MDA-MB-468 cells; 48 h): 6.34 µM
O=C(NCc1ccc(F)cc1F)Nc1ccc(OCc2ccc(OCCN3CCCCC3)cc2)c2ccccc12 [IY210118B-1]	–	–	IC50 (SMMC-7721 cells): 23.6 µM
CNC(=O)c1cc(Oc2ccc(NC(=O)Nc3ccc(Cl)c(C(F)(F)F)c3)cc2)ccn1 [Sorafenib, reference compound]	6.17 µM	–	IC50 (SMMC-7721 cells): 30 µM; IC50 (HuH-7 cells): 17.6 µM

Second part, led by results:

IC50 (HepG2 cells [1]; HepG2, 48 h)	IC50 (MDA-MB-468 cells; MDA-MB-468, 48 h)	SMILES	further results
0.88 µM	688 µM	O=C(Nc1ccc(Cl)c(Cl)c1)Nc1ccc(OCc2ccc(OCCN3CCCCC3)cc2)c2ccccc12 [ID1214B-1]	IC50 (SMMC-7721 cells): 8.73 µM; IC50 (MCF-7 cells; [3]): 88.4 µM; IC50 (MDA-MB-231 cells): 114 µM; induction of cells in the G2/M phase (HepG2 cells [2]; [4]): dramatically induce the liver cancer cells in the G2/M phase in a dose-dependent manner; percentage of cells in the G1/S phase (HepG2 cells [2]; [4]): significantly decrease the percentage of the liver cancer cells in the G1/S phase; length of the G2 phase, % of the cell cycle, after treatment (HepG2 cells [2]; value reached after treatment (increase from DMSO control value)): 17.54%
66.9 µM	–	O=C(Nc1ccc(F)c(F)c1)Nc1ccc(OCc2ccc(OCCN3CCCCC3)cc2)c2ccccc12 [ID210105C-1]	–
5.25 µM	–	O=C(NCc1cccc(Cl)c1)Nc1ccc(OCc2ccc(OCCN3CCCCC3)cc2)c2ccccc12 [ID210106D-1]	IC50 (HuH-7 cells): 6.83 µM
1.31 µM	–	COc1ccc(CNC(=O)Nc2ccc(OCc3ccc(OCCN4CCCCC4)cc3)c3ccccc23)cc1 [ID210113C-1]	IC50 (HuH-7 cells): 4.75 µM
3.97 µM	–	O=C(NCc1ccc(Cl)c(C(F)(F)F)c1)Nc1ccc(OCc2ccc(OCCN3CCCCC3)cc2)c2ccccc12 [ID210114B-1]	IC50 (MCF-7 cells; [3]): 13.2 µM
4.65 µM	–	O=C(NCc1ccc(F)c(Cl)c1)Nc1ccc(OCc2ccc(OCCN3CCCCC3)cc2)c2ccccc12 [ID210115B-1]	IC50 (MCF-7 cells; [3]): 39 µM
37 µM	–	O=C(NCc1ccc(OC(F)(F)F)cc1)Nc1ccc(OCc2ccc(OCCN3CCCCC3)cc2)c2ccccc12 [ID210118D-1]	IC50 (HuH-7 cells): 26.5 µM
26.5 µM	26.6 µM	O=C(Nc1ncccc1Cl)Nc1ccc(OCc2ccc(OCCN3CCCCC3)cc2)c2ccccc12 [ID210119B-1]	–
–	13.2 µM	O=C(Nc1ccccc1)Nc1ccc(OCc2ccc(OCCN3CCCCC3)cc2)c2ccccc12 [IY1223B-1]	–
6.43 µM	–	O=C(Nc1ccc(Cl)c(F)c1)Nc1ccc(OCc2ccc(OCCN3CCCCC3)cc2)c2ccccc12 [IY1229C-1]	–
68.2 µM	20.4 µM	O=C(Nc1ccc(Cl)cc1F)Nc1ccc(OCc2ccc(OCCN3CCCCC3)cc2)c2ccccc12 [IY210103B-1]	–
43.8 µM	51.4 µM	O=C(Nc1ccc(F)c(Cl)c1)Nc1ccc(OCc2ccc(OCCN3CCCCC3)cc2)c2ccccc12 [IY210105B-1]	–
3.8 µM	3.8 µM	O=C(Nc1ccc(F)cc1)Nc1ccc(OCc2ccc(OCCN3CCCCC3)cc2)c2ccccc12 [IY210105D-1]	–
3.94 µM	–	O=C(NCc1ccc(Cl)cc1)Nc1ccc(OCc2ccc(OCCN3CCCCC3)cc2)c2ccccc12 [IY210113C-1]	IC50 (HuH-7 cells): 12.5 µM
3.36 µM	–	O=C(NCc1ccc(C(F)(F)F)cc1)Nc1ccc(OCc2ccc(OCCN3CCCCC3)cc2)c2ccccc12 [IY210113D-1]	IC50 (HuH-7 cells): 13.7 µM
5.77 µM	–	O=C(NCc1cc(F)cc(F)c1)Nc1ccc(OCc2ccc(OCCN3CCCCC3)cc2)c2ccccc12 [IY210115B-1]	IC50 (SMMC-7721 cells): 40.1 µM
3.5 µM	–	O=C(NCc1ccc(F)cc1)Nc1ccc(OCc2ccc(OCCN3CCCCC3)cc2)c2ccccc12 [IY210119B-1]	IC50 (SMMC-7721 cells): 0.736 µM
11 µM	11.6 µM	O=C(Nc1ccncc1)Nc1ccc(OCc2ccc(OCCN3CCCCC3)cc2)c2ccccc12 [IY210122C-1]	–
–	62.5 µM	O=C(Nc1ccc(-c2ccccc2)cc1)Nc1ccc(OCc2ccc(OCCN3CCCCC3)cc2)c2ccccc12 [IY210128B-1]	–
